Each structure is given as a SMILES string.

This is an account of results in ChEMBL document CHEMBL5030561, “Discovery of novel aminosaccharide-based sulfonamide derivatives as potential carbonic anhydrase II inhibitors” (Bioorg Med Chem Lett, 2021).

Data set [1] in a line: in vitro. To be noted: mouse, liver microsomes. For orientation: Microsomes from liver hold many membrane-bound enzymes, among them those of drug oxidation.
Description: Metabolic stability in mouse liver microsomes assessed as clearance
Data set [2] can be described thus: Solubility of compound in water. To be noted: buffer. The data set is classed as physicochemical.
Data set [3] is described as follows: in vitro. To be noted: mouse, liver microsomes. This is another data set of the same source.
Description: Metabolic stability in mouse liver microsomes assessed as half-life
Another data set concerns the target Carbonic anhydrase 9 (Homo sapiens, UniProt Q16790). Nature of the data set: Inhibition of recombinant human CA9 using 4-nitrophenylacetate as substrate by esterase assay.
Data set [4] in a line: Cytotoxicity against HCEC cells assessed as cell viability at 1% by MTT assay relative to control. The conditions noted are these: human, read-out: Activity. The data set is classed as cell-based. On the technique in general: Formazan colour is commonly taken as a measure of viable cells.
The nature of data set [5]: Cytotoxicity against HCEC cells assessed as cell viability at 2 % by MTT assay relative to control. The data set is classed as cell-based. To be noted: human, read-out: Activity.
Data set [6] is filed under the species Homo sapiens. Kind of data set: Selectivity ratio of IC50 for inhibition of recombinant human CA1 to IC50 for inhibition of recombinant human CA2 using 4-nitrophenylacetate as substrate by esterase assay.
The next data set concerns the target Carbonic anhydrase 1 (Homo sapiens, UniProt P00915). Nature of the data set: Inhibition of recombinant human CA1 using 4-nitrophenylacetate as substrate by esterase assay.
The target of a further data set is Carbonic anhydrase 2 (Homo sapiens, UniProt P00918).
Data set [7] is filed under the species Homo sapiens. Nature of the data set: Selectivity ratio of IC50 for inhibition of recombinant human CA9 to IC50 for inhibition of recombinant CA2 using 4-nitrophenylacetate as substrate by esterase assay.

Chain of Carbonic anhydrase 1 (P00915 whole entry): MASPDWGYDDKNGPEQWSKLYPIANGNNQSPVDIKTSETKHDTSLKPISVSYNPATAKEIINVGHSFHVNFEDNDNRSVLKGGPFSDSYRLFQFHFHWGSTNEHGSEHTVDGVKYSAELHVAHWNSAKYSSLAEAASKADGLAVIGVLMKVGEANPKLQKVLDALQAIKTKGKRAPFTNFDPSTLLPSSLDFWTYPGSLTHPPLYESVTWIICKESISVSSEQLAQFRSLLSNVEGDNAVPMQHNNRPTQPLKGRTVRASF
Description for Carbonic anhydrase 2: Inhibition of recombinant human CA2 using 4-nitrophenylacetate as substrate by esterase assay

One may read the CLint scaled as the rate of metabolic loss divided by the concentration. Lower therefore signals greater metabolic stability. As a reminder, the half-life is the time in which the quantity being followed falls by half. High values mean slow decline, low ones rapid decline. Broadly, the IC50 is the concentration needed to halve the response being measured. In “in vitro [1]”, `CCO[C@@H]1O[C@H](CNC(=O)c2ccc(S(N)(=O)=O)cc2)[C@@H](O)[C@H](O)[C@H]1O` registered a CLint scaled of 1.54 mL/min/kg. This compound also had a solubility in [2] of 2.2%. Also, the half-life in the data set “in vitro [3]” is 59.5 h. The IC50 on Carbonic anhydrase 9 is 190 nM. The viability at 1 % in data set [4] is 76%. The viability at 2 % in data set [5] is 71%.

`O=C(O)Cc1ccccc1Nc1c(Cl)cccc1Cl` [DICLOFENAC] returned a CLint scaled in the data set “in vitro [1]” of 137 mL/min/kg. Besides, in “in vitro [3]”, the half-life is 0.667 h.

In the data set “in vitro [1]”, `CO[C@@H]1O[C@H](CNC(=O)c2ccc(S(N)(=O)=O)cc2)[C@@H](O)[C@H](O)[C@H]1O` had a CLint scaled of 1.56 mL/min/kg. This compound also registered a solubility in [2] of 2.5%. The same compound registered a half-life in the data set “in vitro [3]” of 58.6 h. For the same compound, the Selectivity ratio in the data set listed under Homo sapiens [6] stood at 20; in the data set listed under Homo sapiens [7] it was 1.5. For the same compound, the IC50 on Carbonic anhydrase 1 is 2000 nM; at Carbonic anhydrase 9 it was 150 nM; against Carbonic anhydrase 2 it was 100 nM. Moreover, the viability at 1 % in data set [4] was found to be 76%. Besides, the viability at 2 % in data set [5] was 71%.

Take `CCO[C@@H]1O[C@H](CNC(=O)c2ccc(S(N)(=O)=O)cc2)[C@@H](O)[C@H](O)[C@@H]1O`: the intrinsic clearance (CLint scaled) in the data set “in vitro [1]” turned out to be 1.48 mL/min/kg. Besides, the solubility in [2] stood at 2%. The compound also gave a half-life in “in vitro [3]” of 61.6 h. Moreover, the IC50 at Carbonic anhydrase 9 amounted to 200 nM. Moreover, the viability at 1 % in [4] was found to be 76%. In addition, the viability at 2 % in data set [5] was found to be 71%.

Regarding `CCO[C@@H]1O[C@H](CNC(=O)c2ccc(S(N)(=O)=O)cc2)[C@@H](O)[C@H](O)[C@H]1N`, the CLint scaled in “in vitro [1]” came out at 1.56 mL/min/kg. In [2], this compound yielded a solubility of 2.3%. The compound also yielded a half-life in the data set “in vitro [3]” of 58.6 h. Besides, the concentration for half-maximal inhibition (IC50) at Carbonic anhydrase 9 is 220 nM. For the same compound, the viability at 1 % in data set [4] was found to be 76%. The viability at 2 % in data set [5] is 71%.

For the compound `CO[C@@H]1O[C@H](CNC(=O)c2ccc(S(N)(=O)=O)cc2)[C@H](O)[C@H](O)[C@H]1O`, the intrinsic clearance (CLint scaled) in “in vitro [1]” stood at 1.52 mL/min/kg. Also, the solubility in [2] is 2.1%. The half-life in “in vitro [3]” worked out at 60.4 h. Also, the Selectivity ratio in the data set filed under Homo sapiens [6] was found to be 45; in the data set listed under Homo sapiens [7] it was 3.3. In addition, the IC50 was determined as 2700 nM on Carbonic anhydrase 1, 200 nM at Carbonic anhydrase 9 and 60 nM against Carbonic anhydrase 2. For the same compound, in data set [4], the viability at 1 % stood at 76%. For the same compound, the viability at 2 % in [5] came to 71%.

`CCCO[C@@H]1O[C@H](CNC(=O)c2ccc(S(N)(=O)=O)cc2)[C@@H](O)[C@H](O)[C@@H]1O`: in “in vitro [1]”, the CLint scaled came to 1.42 mL/min/kg. For the same compound, in [2], the solubility turned out to be 2.1%. In the data set “in vitro [3]”, the half-life was 64.5 h. The IC50 at Carbonic anhydrase 9 was determined as 260 nM. Besides, the viability at 1 % in data set [4] was 76%. Also, in [5], the viability at 2 % is 71%.

As for `CCCO[C@@H]1O[C@H](CNC(=O)c2ccc(S(N)(=O)=O)cc2)[C@@H](O)[C@H](O)[C@H]1N`, the CLint scaled in the data set “in vitro [1]” is 1.42 mL/min/kg. Moreover, in [2], the solubility came to 2.2%. The compound also gave a half-life in “in vitro [3]” of 64.4 h. For the same compound, the IC50 at Carbonic anhydrase 9 is 290 nM. Also, the viability at 1 % in data set [4] is 76%. The viability at 2 % in data set [5] came to 71%.

Compound `CCN[C@H]1C[C@H](C)S(=O)(=O)c2sc(S(N)(=O)=O)cc21` [DORZOLAMIDE] came in with a solubility in data set [2] of 0.67%.

With `CCCO[C@@H]1O[C@H](CNC(=O)c2ccc(S(N)(=O)=O)cc2)[C@@H](O)[C@H](O)[C@H]1O`, the CLint scaled in the data set “in vitro [1]” turned out to be 1.53 mL/min/kg. The compound also yielded a solubility in [2] of 2.1%. Besides, the half-life in “in vitro [3]” amounted to 59.9 h. For the same compound, the half-maximal inhibitory concentration (IC50) on Carbonic anhydrase 9 was 160 nM. In addition, in data set [4], the viability at 1 % was 76%. Also, the viability at 2 % in [5] is 71%.

As to `CC(=O)Nc1nnc(S(N)(=O)=O)s1` [ACETAZOLAMIDE], in data set [2], the solubility is given as 0.21%. The viability at 1 % in [4] is 40%. In data set [5], the viability at 2 % is 25%.

In turn, `CCCO[C@@H]1O[C@H](CNC(=O)c2ccc(S(N)(=O)=O)cc2)[C@H](O)[C@H](O)[C@H]1O` returned a CLint scaled in “in vitro [1]” of 1.38 mL/min/kg. Moreover, the solubility in [2] amounted to 2.2%. The compound further registered a half-life in the data set “in vitro [3]” of 66.4 h. Also, at Carbonic anhydrase 9, the IC50 turned out to be 220 nM. For the same compound, the viability at 1 % in data set [4] turned out to be 76%. Moreover, in [5], the viability at 2 % worked out at 71%.

In the case of `CO[C@@H]1O[C@H](CNC(=O)c2ccc(S(N)(=O)=O)cc2)[C@@H](O)[C@H](O)[C@H]1N`, the CLint scaled in “in vitro [1]” is 1.64 mL/min/kg. This compound also gave a solubility in data set [2] of 2.5%. For the same compound, in “in vitro [3]”, the half-life was 55.8 h. Moreover, the Selectivity ratio in the data set listed under Homo sapiens [6] is 19; in the data set listed under Homo sapiens [7], 1.6. In addition, the half-inhibitory concentration (IC50) at Carbonic anhydrase 1 was found to be 2300 nM; on Carbonic anhydrase 9, 190 nM; on Carbonic anhydrase 2, 120 nM. The viability at 1 % in [4] turned out to be 76%. For the same compound, in data set [5], the viability at 2 % worked out at 71%.

In data set [2], `CCN[C@H]1CN(CCCOC)S(=O)(=O)c2sc(S(N)(=O)=O)cc21` [BRINZOLAMIDE] came in with a solubility of 0.05%.

As for `CCO[C@@H]1O[C@H](CNC(=O)c2ccc(S(N)(=O)=O)cc2)[C@H](O)[C@H](O)[C@H]1O`, the intrinsic metabolic clearance (CLint scaled) in “in vitro [1]” turned out to be 1.5 mL/min/kg. In data set [2], the solubility is 2.1%. Further, in the data set “in vitro [3]”, the half-life turned out to be 61.1 h. Further, the IC50 on Carbonic anhydrase 9 turned out to be 180 nM. Further, the viability at 1 % in [4] worked out at 76%. The viability at 2 % in data set [5] was 71%.

In the data set “in vitro [1]”, `CO[C@@H]1O[C@H](CNC(=O)c2ccc(S(N)(=O)=O)cc2)[C@@H](O)[C@H](O)[C@@H]1O` had a CLint scaled of 1.6 mL/min/kg. Besides, the solubility in data set [2] came to 2.3%. For the same compound, the half-life in “in vitro [3]” was found to be 57.2 h. Also, the Selectivity ratio came out at 41 in the data set filed under Homo sapiens [6] and 2.4 in the data set listed under Homo sapiens [7]. Also, the results for the IC50 at Carbonic anhydrase 1, at Carbonic anhydrase 9 and at Carbonic anhydrase 2 were 2900 nM, 170 nM and 70 nM, respectively. Further, the viability at 1 % in data set [4] came to 76%. Besides, the viability at 2 % in data set [5] was 71%.
